Data: ChEMBL document CHEMBL4828715, “Discovery, Structure-Activity Relationships, and In Vivo Evaluation of Novel Aryl Amides as Brain Penetrant Adaptor Protein 2-Associated Kinase 1 (AAK1) Inhibitors for the Treatment of Neuropathic Pain” (J Med Chem, 2021)
≈ marks a conversion by molar mass, not a printed value. Calls of active or inactive are those of the source. The rule behind the calls is not given here.

Legend:
[1] = Metabolic stability in human liver microsomes assessed as parent compound remaining at 0.5 uM incubated for 10 mins in presence of NADPH by LC-MS/MS analysis; type: ADME, Microsome; details: read-out: Stability
[2] = molecular target: AP2-associated protein kinase 1 (Homo sapiens, UniProt Q2M2I8); experiment: Inhibition of human AAK1 expressed in HEK293 cells assessed as suppression of AP2 phosphorylation measured after 3 hrs by Western blot analysis; type: cell-based
[3] = Permeability of the compound at pH 5.5 incubated for 4 hrs by PAMPA-based UV spectrophotometry; type: ADME; details: read-out: permeability
[4] = Permeability of the compound at pH 7.4 incubated for 4 hrs by PAMPA-based UV spectrophotometry; type: ADME; details: PAMPA, pH 7.4, read-out: permeability
[5] = Protein binding in mouse plasma assessed as unbound fraction at 10 uM measured after 5 hrs by equilibrium dialysis method
[6] = Aqueous solubility of the compound at pH 7.4; type: physicochemical
[7] = molecular target: BMP-2-inducible protein kinase (Homo sapiens, UniProt Q9NSY1); experiment: Inhibition of wild-type human partial length BIKE (S34 to N329 residues) expressed in bacterial expression system assessed as residual binding level at 1 uM by Kinomescan method relative to control
[8] = molecular target: G protein-coupled receptor kinase 4 (Homo sapiens) (UniProt P32298); experiment: Inhibition of wild-type human full length GRK4 (M1 to C578 residues) expressed in bacterial expression system assessed as residual binding level at 1 uM by Kinomescan method relative to control
[9] = molecular target: T1, MAP kinase-interacting serine/threonine-protein kinase 2 (Homo sapiens, UniProt Q9HBH9); experiment: Inhibition of wild-type human partial length MKNK2 (G63 to S388 residues) expressed in mammalian expression system assessed as residual binding level at 1 uM by Kinomescan method relative to control
Target sequence in this assay (Q9HBH9 whole entry, looked up, the tested form may be a part): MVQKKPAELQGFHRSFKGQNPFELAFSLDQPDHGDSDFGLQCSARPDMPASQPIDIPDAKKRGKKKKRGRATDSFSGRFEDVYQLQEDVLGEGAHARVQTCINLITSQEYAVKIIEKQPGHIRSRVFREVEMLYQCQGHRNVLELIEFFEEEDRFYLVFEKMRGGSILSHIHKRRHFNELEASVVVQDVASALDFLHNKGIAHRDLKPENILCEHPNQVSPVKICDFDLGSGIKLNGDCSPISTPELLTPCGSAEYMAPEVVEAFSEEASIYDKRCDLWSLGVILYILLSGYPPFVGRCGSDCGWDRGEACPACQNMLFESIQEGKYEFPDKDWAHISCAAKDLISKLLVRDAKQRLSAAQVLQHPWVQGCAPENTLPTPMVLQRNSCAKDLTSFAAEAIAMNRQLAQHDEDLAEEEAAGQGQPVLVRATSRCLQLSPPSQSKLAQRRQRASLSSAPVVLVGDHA

[10] = molecular target: Phosphatidylinositol 5-phosphate 4-kinase type-2 beta (Homo sapiens) (UniProt P78356); experiment: Inhibition of wild-type human full length PIP5K2B (M1 to T416 residues) expressed in bacterial expression system assessed as residual binding level at 1 uM by Kinomescan method relative to control
[11] = molecular target: cAMP-dependent protein kinase catalytic subunit PRKX (Homo sapiens) (UniProt P51817); experiment: Inhibition of wild-type human partial length PRKX (M1 to F358 residues) expressed in bacterial expression system assessed as residual binding level at 1 uM by Kinomescan method relative to control
[12] = molecular target: Serine/threonine-protein kinase RIO1 (Homo sapiens) (UniProt Q9BRS2); experiment: Inhibition of wild-type human full length RIOK1 (M1 to K568 residues) expressed in bacterial expression system assessed as residual binding level at 1 uM by Kinomescan method relative to control
[13] = molecular target: MAP kinase-interacting serine/threonine-protein kinase 1 (Homo sapiens, UniProt Q9BUB5); experiment: Inhibition of wild-type human full length MKNK1 (M1 to L424 residues) expressed in mammalian expression system by Kinomescan method
[14] = molecular target: T1, MAP kinase-interacting serine/threonine-protein kinase 2; experiment: Inhibition of wild-type human partial length MKNK2 (G63 to S388 residues) expressed in mammalian expression system by Kinomescan method
Target sequence in this assay (Q9HBH9 whole entry, the tested form may be a part): as the sequence (Q9HBH9 whole entry, looked up, the tested form may be a part) above

[15] = molecular target: Protein kinase C theta type (Homo sapiens, UniProt Q04759); experiment: Inhibition of PKCtheta (unknown origin)
[16] = molecular target: cAMP-dependent protein kinase catalytic subunit PRKX (Homo sapiens, UniProt P51817); experiment: Inhibition of wild-type human partial length PRKX (M1 to F358 residues) expressed in bacterial expression system by Kinomescan method
[17] = molecular target: Sodium-dependent noradrenaline transporter (Homo sapiens, UniProt P23975); experiment: Inhibition of NET (unknown origin)
[18] = molecular target: Sodium-dependent serotonin transporter (Homo sapiens, UniProt P31645); experiment: Inhibition of SERT (unknown origin)
[19] = molecular target: AP2-associated protein kinase 1 (Mus musculus) (UniProt Q3UHJ0); experiment: In vivo inhibition of AAK1 in C57BL6 mouse assessed as suppression of mu2 phosphorylation in brain lysate at 10 mg/kg, sc measured after 30 mins by Western blot analysis relative to control; type: functional, organism-based
[20] = molecular target: AP2-associated protein kinase 1 (Mus musculus) (UniProt Q3UHJ0); experiment: In vivo inhibition of AAK1 in C57BL6 mouse assessed as suppression of mu2 phosphorylation in brain lysate at 30 mg/kg, sc measured; type: functional, organism-based
[21] = Drug concentration in plasma of C57BL6 mouse at 1 mg/kg, sc; type: ADME, organism-based; details: in vivo
[22] = Drug concentration in plasma of C57BL6 mouse at 30 mg/kg, sc; type: ADME, organism-based; details: in vivo
Mus musculus [23] = experiment: Antinociceptive activity against formalin-induced nociceptive behavior in C57BL6 mouse assessed as reduction in phase 2 hind paw licking/biting at 30 mg/kg, sc administered 60 mins prior to formalin challenge by formalin test; type: functional, organism-based
Mus musculus [24] = experiment: Antinociceptive activity against formalin-induced nociceptive behavior in C57BL6 mouse assessed as reduction in phase 2 hind paw licking/biting at 10 mg/kg, sc administered 60 mins prior to formalin challenge by formalin test; type: functional, organism-based
Mus musculus [25] = experiment: Antinociceptive activity against formalin-induced nociceptive behavior in C57BL6 mouse assessed as reduction in phase 1 hind paw flinching at 30 mg/kg, sc administered 60 mins prior to formalin challenge by formalin test; type: functional, organism-based
Rattus norvegicus [26] = experiment: Antinociceptive activity in Sprague-Dawley rat model of chronic constriction injury-induced neuropathic pain assessed as reduction in paw withdrawal latency at 60 mg/kg, sc by Von Frey test; type: functional, organism-based
Rattus norvegicus [27] = experiment: Antinociceptive activity in Sprague-Dawley rat model of chronic constriction injury-induced neuropathic pain assessed as reduction in thermal hyperalgesia 60 mg/kg, sc by Von Frey test relative to control; type: functional; set-up: scale not given: the % may be the effect or the level left
Rattus norvegicus [28] = experiment: Antinociceptive activity in Sprague-Dawley rat model of chronic constriction injury-induced neuropathic pain assessed as reduction in mechanical hyperalgesia 60 mg/kg, sc by Von Frey test relative to control; type: functional; set-up: scale not given: the % may be the effect or the level left
Rattus norvegicus [29] = experiment: Antinociceptive activity in Sprague-Dawley rat model of chronic constriction injury-induced neuropathic pain assessed as reduction in thermal hyperalgesia 30 mg/kg, sc by Von Frey test relative to control; type: functional; set-up: scale not given: the % may be the effect or the level left
Rattus norvegicus [30] = experiment: Antinociceptive activity in Sprague-Dawley rat model of chronic constriction injury-induced neuropathic pain assessed as reduction in thermal hyperalgesia 3 mg/kg, sc by Von Frey test relative to control; type: functional; set-up: scale not given: the % may be the effect or the level left
[31] = Drug concentration in plasma of Sprague-Dawley rat model of chronic constriction injury-induced neuropathic pain at 1 mg/kg, sc; type: ADME, organism-based; details: in vivo
[32] = Drug concentration in plasma of Sprague-Dawley rat model of chronic constriction injury-induced neuropathic pain at 10 mg/kg, sc; type: ADME, organism-based; details: in vivo
[33] = Drug concentration in plasma of Sprague-Dawley rat model of chronic constriction injury-induced neuropathic pain at 30 mg/kg, sc; type: ADME, organism-based; details: in vivo
[34] = Drug concentration in brain of Sprague-Dawley rat model of chronic constriction injury-induced neuropathic pain at 3 mg/kg, sc; type: ADME, organism-based; details: in vivo, read-out: Ct
[35] = Induction of motor coordination impairment in Sprague-Dawley rat at 60 mg/kg, sc measured up to 180 mins by rotarod test; type: organism-based; details: in vivo, 3 h

AP2-associated protein kinase 1 (Mus musculus), sequence (Q3UHJ0 whole entry, looked up): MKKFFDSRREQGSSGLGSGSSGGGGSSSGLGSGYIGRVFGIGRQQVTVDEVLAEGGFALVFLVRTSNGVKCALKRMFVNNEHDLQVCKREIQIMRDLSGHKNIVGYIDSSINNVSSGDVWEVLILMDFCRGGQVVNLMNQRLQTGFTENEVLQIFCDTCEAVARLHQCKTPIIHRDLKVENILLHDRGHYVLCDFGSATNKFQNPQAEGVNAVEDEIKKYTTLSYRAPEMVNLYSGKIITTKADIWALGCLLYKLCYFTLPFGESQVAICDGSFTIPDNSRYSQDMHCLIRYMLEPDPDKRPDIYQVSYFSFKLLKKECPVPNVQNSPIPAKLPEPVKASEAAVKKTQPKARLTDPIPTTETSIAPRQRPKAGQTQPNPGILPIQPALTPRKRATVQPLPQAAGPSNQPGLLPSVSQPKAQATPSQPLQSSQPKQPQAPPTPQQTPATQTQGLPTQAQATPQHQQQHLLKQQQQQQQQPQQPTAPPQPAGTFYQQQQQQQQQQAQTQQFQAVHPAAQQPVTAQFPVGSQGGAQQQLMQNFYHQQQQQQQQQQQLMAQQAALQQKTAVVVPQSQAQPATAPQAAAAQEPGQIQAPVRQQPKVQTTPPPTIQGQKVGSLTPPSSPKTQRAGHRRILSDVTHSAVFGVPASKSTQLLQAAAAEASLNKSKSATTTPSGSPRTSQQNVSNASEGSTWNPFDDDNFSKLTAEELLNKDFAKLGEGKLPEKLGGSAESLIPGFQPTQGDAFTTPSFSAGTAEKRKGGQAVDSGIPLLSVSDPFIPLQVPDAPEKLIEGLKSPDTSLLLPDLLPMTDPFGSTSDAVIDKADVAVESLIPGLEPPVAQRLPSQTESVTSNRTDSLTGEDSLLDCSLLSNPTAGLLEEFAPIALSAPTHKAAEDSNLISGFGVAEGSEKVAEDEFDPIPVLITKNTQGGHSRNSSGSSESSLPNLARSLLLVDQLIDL
Sodium-dependent serotonin transporter, sequence (P31645 whole entry): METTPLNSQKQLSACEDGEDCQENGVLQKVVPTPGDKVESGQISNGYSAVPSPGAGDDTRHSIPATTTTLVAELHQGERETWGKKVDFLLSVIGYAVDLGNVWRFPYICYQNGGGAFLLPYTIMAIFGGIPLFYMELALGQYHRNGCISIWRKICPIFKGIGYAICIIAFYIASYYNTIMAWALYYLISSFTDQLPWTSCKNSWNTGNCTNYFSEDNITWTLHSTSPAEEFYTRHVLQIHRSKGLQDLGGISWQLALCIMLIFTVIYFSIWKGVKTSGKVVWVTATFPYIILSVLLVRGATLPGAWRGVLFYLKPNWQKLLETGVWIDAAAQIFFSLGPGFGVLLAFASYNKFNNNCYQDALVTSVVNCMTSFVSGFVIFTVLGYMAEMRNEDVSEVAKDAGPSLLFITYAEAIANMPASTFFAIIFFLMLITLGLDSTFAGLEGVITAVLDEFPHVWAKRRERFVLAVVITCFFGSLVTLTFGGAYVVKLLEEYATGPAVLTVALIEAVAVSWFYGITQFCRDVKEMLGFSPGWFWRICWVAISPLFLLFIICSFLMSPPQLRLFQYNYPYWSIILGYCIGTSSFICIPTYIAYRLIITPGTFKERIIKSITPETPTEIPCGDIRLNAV
Phosphatidylinositol 5-phosphate 4-kinase type-2 beta (Homo sapiens), sequence (P78356 whole entry, the tested form may be a part): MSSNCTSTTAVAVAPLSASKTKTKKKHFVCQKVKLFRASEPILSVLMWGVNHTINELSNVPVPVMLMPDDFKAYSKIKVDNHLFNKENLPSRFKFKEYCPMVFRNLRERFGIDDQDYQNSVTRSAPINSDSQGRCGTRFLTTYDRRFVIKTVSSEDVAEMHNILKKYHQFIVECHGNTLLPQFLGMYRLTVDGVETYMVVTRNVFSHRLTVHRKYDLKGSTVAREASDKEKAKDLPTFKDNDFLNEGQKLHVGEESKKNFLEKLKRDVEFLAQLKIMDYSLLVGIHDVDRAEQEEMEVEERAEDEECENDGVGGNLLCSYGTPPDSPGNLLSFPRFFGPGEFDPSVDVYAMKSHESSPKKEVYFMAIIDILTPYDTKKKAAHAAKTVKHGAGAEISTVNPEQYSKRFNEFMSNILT
Sodium-dependent noradrenaline transporter, sequence (P23975 whole entry): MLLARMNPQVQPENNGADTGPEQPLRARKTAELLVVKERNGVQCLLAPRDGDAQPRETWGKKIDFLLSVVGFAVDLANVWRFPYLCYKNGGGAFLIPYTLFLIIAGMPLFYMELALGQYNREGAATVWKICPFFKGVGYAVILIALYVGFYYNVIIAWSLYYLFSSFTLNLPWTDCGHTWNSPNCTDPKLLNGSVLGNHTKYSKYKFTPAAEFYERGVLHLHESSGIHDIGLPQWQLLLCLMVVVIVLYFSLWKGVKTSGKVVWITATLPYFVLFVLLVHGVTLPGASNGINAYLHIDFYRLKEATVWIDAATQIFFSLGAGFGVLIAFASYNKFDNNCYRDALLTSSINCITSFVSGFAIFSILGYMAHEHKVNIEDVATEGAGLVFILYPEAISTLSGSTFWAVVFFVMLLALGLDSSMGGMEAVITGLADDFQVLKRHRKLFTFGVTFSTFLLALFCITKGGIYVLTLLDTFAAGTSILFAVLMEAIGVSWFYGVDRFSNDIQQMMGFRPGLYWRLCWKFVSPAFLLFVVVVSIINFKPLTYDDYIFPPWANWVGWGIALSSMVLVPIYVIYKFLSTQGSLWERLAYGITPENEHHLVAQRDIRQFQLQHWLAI
Protein kinase C theta type, sequence (Q04759 whole entry, the tested form may be a part): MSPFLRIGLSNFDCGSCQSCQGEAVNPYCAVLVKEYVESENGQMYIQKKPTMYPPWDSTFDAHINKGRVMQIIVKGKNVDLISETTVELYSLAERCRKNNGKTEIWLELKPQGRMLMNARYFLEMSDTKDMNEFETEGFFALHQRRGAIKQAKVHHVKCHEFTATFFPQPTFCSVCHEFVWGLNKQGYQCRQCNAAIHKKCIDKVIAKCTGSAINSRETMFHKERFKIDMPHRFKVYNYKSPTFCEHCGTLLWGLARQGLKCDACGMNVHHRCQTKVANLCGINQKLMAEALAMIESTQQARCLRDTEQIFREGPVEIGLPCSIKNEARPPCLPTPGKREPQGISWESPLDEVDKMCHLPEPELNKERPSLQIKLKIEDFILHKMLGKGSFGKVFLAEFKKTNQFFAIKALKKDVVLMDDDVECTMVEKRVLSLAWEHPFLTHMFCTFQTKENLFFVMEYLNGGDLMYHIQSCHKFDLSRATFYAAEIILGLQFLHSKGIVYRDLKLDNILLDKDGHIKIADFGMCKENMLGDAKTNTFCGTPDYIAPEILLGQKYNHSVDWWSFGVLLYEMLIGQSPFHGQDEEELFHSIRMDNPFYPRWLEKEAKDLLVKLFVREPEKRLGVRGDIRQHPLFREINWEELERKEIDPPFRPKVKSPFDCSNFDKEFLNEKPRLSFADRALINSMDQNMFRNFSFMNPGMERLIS
AP2-associated protein kinase 1, sequence (Q2M2I8 whole entry): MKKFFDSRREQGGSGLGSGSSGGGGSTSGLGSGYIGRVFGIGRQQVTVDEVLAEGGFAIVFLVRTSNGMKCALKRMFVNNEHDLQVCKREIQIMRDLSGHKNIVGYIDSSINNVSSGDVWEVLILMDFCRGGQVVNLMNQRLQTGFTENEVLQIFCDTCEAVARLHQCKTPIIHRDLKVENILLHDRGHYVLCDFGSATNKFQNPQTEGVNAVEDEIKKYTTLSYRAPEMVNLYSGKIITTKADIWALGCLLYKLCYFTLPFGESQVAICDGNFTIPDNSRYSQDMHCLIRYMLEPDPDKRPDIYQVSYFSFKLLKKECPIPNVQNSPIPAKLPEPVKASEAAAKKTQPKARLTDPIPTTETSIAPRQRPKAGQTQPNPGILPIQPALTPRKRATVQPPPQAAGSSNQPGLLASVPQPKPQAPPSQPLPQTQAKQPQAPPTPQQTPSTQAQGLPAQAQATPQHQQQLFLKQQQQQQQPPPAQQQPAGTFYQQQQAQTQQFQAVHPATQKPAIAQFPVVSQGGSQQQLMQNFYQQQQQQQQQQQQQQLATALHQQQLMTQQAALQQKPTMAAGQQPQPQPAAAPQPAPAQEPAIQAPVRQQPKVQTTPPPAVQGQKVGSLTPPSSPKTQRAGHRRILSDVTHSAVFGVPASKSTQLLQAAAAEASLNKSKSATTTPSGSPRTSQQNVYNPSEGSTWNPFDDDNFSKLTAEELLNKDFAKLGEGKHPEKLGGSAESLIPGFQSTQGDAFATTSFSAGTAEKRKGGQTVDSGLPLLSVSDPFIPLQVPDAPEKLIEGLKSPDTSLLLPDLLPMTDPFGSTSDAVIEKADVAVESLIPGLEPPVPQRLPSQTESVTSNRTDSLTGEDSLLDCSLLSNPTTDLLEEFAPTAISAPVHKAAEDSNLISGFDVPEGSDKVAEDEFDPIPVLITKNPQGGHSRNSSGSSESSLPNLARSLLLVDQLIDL

CC(C)C[C@@H](N)C(=O)Nc1ccc(-c2cnco2)c(OC(F)F)c1
remaining at 10 min, 0.5 µM [1]: 84%
IC50 [2]: 51 nM
Papp at 4 h [3]: 91.8 ×10⁻⁶ cm/s
Papp at 4 h [4]: 96.7 ×10⁻⁶ cm/s
fraction unbound at 5 h, 10 µM [5]: 0.041
solubility [6]: 600 µg/mL (≈ 1770 µM)
Activity [7]: 6.2%
Activity [8]: 13%
Activity [9]: 1.4%
Activity [10]: 6.2%
Activity [11]: 19%
Activity [12]: 7.6%
IC50 [13]: 507 nM
IC50 [14]: 428 nM
IC50 [15]: 1330 nM
IC50 [16]: 326 nM
IC50 [17]: > 30 µM
IC50 [18]: > 30 µM
inhibition [19]: 56%
inhibition [20]: Active
concentration [21]: 1200 nM
concentration [22]: 37 µM
Activity (Mus musculus [23]): Active
Activity (Mus musculus [24]): Active
Activity (Mus musculus [25]): Active
Activity (Rattus norvegicus [26]): Active
Activity (Rattus norvegicus [27]): 113%
Activity (Rattus norvegicus [28]): 45%
Activity (Rattus norvegicus [29]): 90%
Activity (Rattus norvegicus [30]): 35%
concentration [31]: 400 nM
concentration [32]: 11 µM
concentration [33]: 52 µM
concentration [34]: 900 nM
Activity [35]: Non-Toxic
